Results as given in patent publication US9173397B2, “Formulation component” (Syngenta Limited, priority 2011, dated 2015).
Where two headings read alike, the source gives them in different places.

Assays:
[1] = system: Chenopodium album, Abutilon theophrasti, Setaria viridis, Xanthium strumarium; experiment: Glasshouse weed kill, fomesafen with/without adjuvants (Example 4); format: in vivo
Protocol: (§1) The efficacy of the aromatic acid ester Morflex ®560 (tri-n-hexyltrimellitate) as an adjuvant for the herbicide fomesafen was tested against four weed species in a glasshouse and compared to the well-know adjuvants, acetyl tributyl citrate and Turbocharge® which were added at concentrations of 0.2 and 0.5% w/w respectively. The adjuvant oils were emulsified using a small amount of the surfactant Pluronic® PE 10500, which was present in the composition at a concentration of 0.02% v/v.
An agrochemical composition was prepared containing 0.2% v/v of the adjuvant in a track sprayer and was applied at a volume of 200 liters per hectare. Fomesafen was applied at either 60 or 120 grams of pesticide per hectare on each of the weed species. The weed species and their growth stage at spraying were Chenopodium album (CHEAL; growth stage 14), Abutilon theophrasti (ABUTH; growth stage 12), Setaria viridis (SETVI; growth stage 13), and Xanthium strumarium (XANST; growth stage 12).
Each spray test was replicated three times. The efficacy of the herbicide was assessed visually and expressed as a percentage of the leaf area killed. Samples were assessed at time periods of 7, 14 and 21 days following application. […]

[2] = system: Polygonum convolvulus, Brachiaria platyphylla, Digitaria sanguinalis, Amaranthus tuberculatus; experiment: Glasshouse weed kill, mesotrione with/without adjuvants (Example 5); format: in vivo
Protocol: The efficacy of the aromatic ester tri-n-hexyltrimellitate (Morflex®560) was tested in a glasshouse against four weed species using the herbicide mesotrione. An agrochemical composition was prepared containing 0.2% v/v of the adjuvant in a track sprayer and was applied at a volume of 200 liters per hectare. The adjuvant oils were emulsified using a small amount of the surfactant Pluronic® PE 10500, which was present in the composition at a concentration of 0.02% v/v. Mesotrione was applied at either 45 or 90 grams of pesticide per hectare on weeds which had been grown to the 1.3 or 1.4 leaf stage. The weed species were Polygonum convolvulus (POLCO), Brachiaria platyphylla (BRAPL) Digitaria sanguinalis (DIGSA) and Amaranthus tuberculatus (AMATU).
Each spray test was replicated three times. The efficacy of the herbicide was assessed visually and expressed as a percentage of the leaf area killed. Samples were assessed at time periods of 7, 14 and 21 days following application. The results shown in Table 6 below are mean averages over the two rates of mesotrione, three relicates, four weed species and the three assessment timings and are compared to the efficacy of mesotrione in the absence of an adjuvant, and mesotrione in the presence of the commercially available adjuvants acetyl tributyl citrate or Tween®20 which were used at concentrations of 0.2 and 0.5% w/w respectively.

[3] = system: Abutilon theophrasti, Chenopodium album, Digitaria sanguinalis, Setaria viridis; experiment: Glasshouse weed kill, nicosulfuron with/without adjuvants (Example 3); format: in vivo
Protocol: as §1, with “nicosulfruon” for “fomesafen”, “adjuvants, tris-2-ethylhexyl phosphate and” for “adjuvants,”, “citrate” for “citrate and Turbocharge®”, “tested” for “added”, “0.2% w/w.” for “0.2 and 0.5% w/w respectively.”
An agrochemical composition was prepared containing 0.2% v/v of the adjuvant in a track sprayer, and was applied at a volume of 200 liters per hectare. Nicosulfuron was applied at a rate of either 30 or 60 grams of pesticide per hectare. The weed species and their growth stage at spraying were Abutilon theophrasti (ABUTH; growth stage 13), Chenopodium album (CHEAL; growth stage 14), Digitaria sanguinalis (DIGSA; growth stage 13), and Setaria viridis (SETVI; growth stage 13).
Each spray test replicated three times. The efficacy of the herbicide was assessed visually and expressed as a percentage of the leaf area killed. Samples were assessed at time periods of 14 and 21 days following application. […]

[4] = system: Abutilon theophrasti, Chenopodium album, Digitaria sanguinalis, Setaria viridis; format: in vivo; settings: for adjuvant efficacy in words (nicosulfuron): conclusion from Table 8
Protocol: The efficacy of the aromatic esters tri-n-hexyltrimellitate (Morflex®560) and tri-isodecylmellitate (Morflex®530) as adjuvants for nicosulfuron were tested in a glasshouse against four weed species. An agrochemical composition was prepared containing 0.2% v/v of the adjuvant in a track sprayer, and was applied at a volume of 200 liters per hectare. The adjuvant oils were emulsified using a small amount of the surfactant Pluronic® PE 10500, which was present in the composition at a concentration of 0.02% v/v. Nicosulfuron was applied at a rate of either 30 or 60 grams per hectare. The weed species and their growth stage at spraying were Abutilon theophrasti (ABUTH; growth stage 13), Chenopodium album (CHEAL; growth stage 14), Digitaria sanguinalis (DIGSA; growth stage 13), and Setaria viridis (SETVI; growth stage 13).
Each spray test was replicated three times. The efficacy of the herbicide was assessed visually and expressed as a percentage of the leaf area killed. Samples were assessed at time periods of 14 and 21 days following application. […] In this experiment Atplus®411F was added at the higher rate of 0.5% v/v. The other adjuvants were added at 0.2% v/v.

[5] = system: Alopecurus myosuroides, Avena fatua, Lolium perenne, Setaria viridis; experiment: Glasshouse weed kill, pinoxaden with/without adjuvants (Example 8); format: in vivo; settings: for adjuvant efficacy in words (pinoxaden): conclusion from Table 9
Protocol: The efficacy of the aromatic esters tri-n-hexyltrimellitate (Morflex®560) and tri-isodecylmellitate (Morflex®530) as adjuvants for pinoxaden were tested in a glasshouse against four weed species. An agrochemical composition was prepared containing 0.2% v/v of the adjuvant in a track sprayer and was applied at a volume of 200 liters per hectare. Pinoxaden was applied at either 7.5 or 15 grams per hectare on each of the weed species. The weed species and their growth stage at spraying were Alopecurus myosuroides (ALOMY; growth stage 13), Avena fatua (AVEFA; growth stage 12); Lolium perenne (LOLPE; growth stage 13), Setaria viridis (SETVI; growth stage 14).
Each spray test was replicated three times. The efficacy of the herbicide was assessed visually and expressed as a percentage of the leaf area killed. Samples were assessed at time periods of 7 and 14 days following application. The results shown in Table 9 below are mean averages over the two rates of pinoxaden, three replicates, four weed species and the two assessment timings. The results were compared to the efficacy of pinoxaden in the absence of an adjuvant and pinoxaden in the presence of either tri-2-ethylhexyl phosphate (applied at 0.5% v/v) or methyl oleate (applied at 0.2% v/v).

[6] = system: Alopecurus myosuroides, Avena fatua, Lolium perenne, Setaria viridis; experiment: Glasshouse weed kill, pinoxaden with/without adjuvants (Example 6); format: in vivo
Protocol: The efficacy of the aromatic ester tri-n-hexyltrimellitate (Morflex®560) was tested in a glasshouse against four weed species using the herbicide pinoxaden. An agrochemical composition was prepared containing 0.2% v/v of the adjuvant in a track sprayer and was applied at a volume of 200 liters per hectare. The adjuvant oils were emulsified using a small amount of the surfactant Pluronic® PE 10500, which was present in the composition at a concentration of 0.02% v/v. Pinoxaden was applied at either 7.5 or 15 grams of pesticide per hectare on each of the weed species. The weed species and their growth stage at spraying were Alopecurus myosuroides (ALOMY; growth stage 13), Avena fatua (AVEFA; growth stage 12); Lolium perenne (LOLPE; growth stage 13), Setaria viridis (SETVI; growth stage 14).
Each spray test was replicated three times. The efficacy of the herbicide was assessed visually and expressed as a percentage of the leaf area killed. Samples were assessed at time periods of 14 and 21 days following application. The results shown in table 7 below are mean averages over the two rates of pinoxaden, three replicates, four weed species and the two assessment timings, and are compared to the efficacy of pinoxaden in the absence of adjuvant and pinoxaden in the presence of the known adjuvant acetyl tributyl citrate which was used at a concentration of 0.2% w/w.

[7] = system: Septoria tritici; experiment: Septoria tritici infection of wheat plants, isopyrazam spray with/without adjuvants; format: in vivo, Septoria tritici (on wheat plants); settings: conclusion from Table 2
Protocol: The efficacy of the following aromatic acid esters tri-n-hexyltrimellitate (Morflex®560) and tri-isodecyl trimellitate (Morflex®530), as adjuvants in compositions comprising isopyrazam was tested and compared to the standard formulations (both EC and SC) of the fungicide, which lack this type of adjuvant.
Wheat plants were inoculated with the fungus Septoria tritici. Five days after inoculation the plants were sprayed with a diluted emulsion concentrate or suspension concentrate formulation of the fungicide isopyrazam at rates of 3, 10, 30 and 100 mg of the fungicide per litre of spray solution, using a laboratory track sprayer which delivered the spray at a rate of 200 liters per hectare. Spray tests were also carried out with diluted suspension concentrate additionally comprising each of the benzoate adjuvants described above. These adjuvants were added to the spray solution at a rate of 0.5% w/w, based on the quantity of spray liquor. The adjuvant oils were emulsified using a small amount of the surfactant Pluronic® PE 10500, which was present in the composition at a concentration of 0.02% v/v. The leaves of the plants were assessed visually 14 days after the spray application and the damage was expressed as the percentage of the leaf area infected.

[8] = system: Tetranychus urticae; experiment: Mortality of two spotted spider mite on French bean plants, abamectin with/without Morflex 560; format: in vivo, Tetranychus urticae (on Phaseolus vulgaris); settings: for % mortality of Tetranychus urticae: 10 days, larva and adults averaged, Morflex 560 0.1% v/v where present
Protocol: The efficacy of tri-n-hexyltrimellitate (Morflex® 560) as an adjuvant in compositions containing abamectin was tested and compared to the efficacy of abamectin compositions which lack this type of adjuvant. The Morflex 560 was present at 0.1% v/v in the abamectin compositions. The surfactants polyoxyethylene sorbitan monooleate and an ethoxylated castor oil were also present in all the abamectin compositions tested. Two week old French bean (Phaseolus vulgaris) plants were infested with a mixed population of two spotted spider mite Tetranychus urticae. One day after infestation the plants were treated with the test compositions, with a track sprayer from the top with a rate of 200 liters per hectare. Plants were incubated in the greenhouse for 10 days and the evaluation was done on mortality against Larva and Adults, just on the lower side (untreated) of the leaves. Each experiment was replicated twice and the results were averaged. The mortality against Larva and Adults was then averaged.

CS(=O)(=O)NC(=O)c1cc(Oc2ccc(C(F)(F)F)cc2Cl)ccc1[N+](=O)[O-] [Fomesafen, reference compound]
Mean percentage kill, mean across species ([1]; % leaf area killed, mean over fomesafen 60 and 120 g/ha, 7, 14 and 21 days, four species, adjuvant 0.2% (Turbocharge 0.5% w/w)): 22.5 D %

CS(=O)(=O)c1ccc(C(=O)C2C(=O)CCCC2=O)c([N+](=O)[O-])c1 [Mesotrione, reference compound]
Mean percentage kill, mean across species ([2]; % leaf area killed, mean over mesotrione 45 and 90 g/ha, 7, 14 and 21 days, four species, adjuvant 0.2% (Tween 20 0.5% w/w)): 34.0 B %

COc1cc(OC)nc(NC(=O)NS(=O)(=O)c2ncccc2C(=O)N(C)C)n1 [Nicosulfuron, reference compound]
Mean percentage kill, mean across species ([3]; % leaf area killed, mean over nicosulfuron 30 and 60 g/ha, 14 and 21 days, four species, adjuvant 0.2%): 42.5 B % | Mean percentage kill, mean across species ([4]; % leaf area killed, mean over nicosulfuron 30 and 60 g/ha, 14 and 21 days, four species, adjuvant 0.2% v/v (Atplus 411F 0.5% v/v)): 31.1 E %

CCc1cc(C)cc(CC)c1-c1c(OC(=O)C(C)(C)C)n2n(c1=O)CCOCC2 [Pinoxaden, reference compound]
Mean percentage kill, mean across species ([5]; % leaf area killed, mean over pinoxaden 7.5 and 15 g/ha, 7 and 14 days, four species, adjuvant 0.2% v/v (tri-2-ethylhexyl phosphate 0.5% v/v)): 2.3 D % | Mean percentage kill, mean across species ([6]; % leaf area killed, mean over pinoxaden 7.5 and 15 g/ha, 14 and 21 days, four species, adjuvant 0.2%): 11.4 C %

CC(C)CCCCCCCOC(=O)c1ccc(C(=O)OCCCCCCCC(C)C)c(C(=O)OCCCCCCCC(C)C)c1 [Tri-isodecyl trimellitate]
adjuvant efficacy in words (nicosulfuron) [4]: increases the efficacy of the herbicide nicosulfuron | adjuvant efficacy in words (pinoxaden) [5]: increases the efficacy of pinoxaden | adjuvant efficacy in words (isopyrazam, S. tritici) [7]: as efficacious as the commercial tank mix adjuvant Turbocharge®

CCCCCCOC(=O)c1ccc(C(=O)OCCCCCC)c(C(=O)OCCCCCC)c1 [Tri-n-hexyltrimellitate, Tri-n-hexyl trimellitate]
adjuvant efficacy in words (nicosulfuron) ([3]; conclusion from Table 4): as effective an adjuvant as either tris-2-ethylhexylphosphate or acetyl tributyl citrate | adjuvant efficacy in words (mesotrione) ([2]; conclusion from Table 6): as effective an adjuvant as either acetyl tributyl citrate or Tween®20 | adjuvant efficacy in words (nicosulfuron) [4]: more effective an adjuvant than methyl oleate and as effective an adjuvant as Atplus®411F | adjuvant efficacy in words (pinoxaden) [5]: increases the efficacy of pinoxaden | mortality of Tetranychus urticae ([8]; composition without abamectin, 0.1% v/v Morflex 560): no mortality was observed | adjuvant efficacy in words (abamectin, Tetranychus urticae) ([8]; conclusion from Table 10): provided effective control of Tetranychus urticae at much lower concentrations of abamectin than are required in the absence of adjuvant | adjuvant efficacy in words (fomesafen) ([1]; conclusion from Table 5): as effective an adjuvant as Turbocharge® and better than acetyl tributyl citrate | adjuvant efficacy in words (pinoxaden) ([6]; conclusion from Table 7): more effective an adjuvant than acetyl tributyl citrate | adjuvant efficacy in words (isopyrazam, S. tritici) [7]: as efficacious as the commercial tank mix adjuvant Turbocharge®

Abamectin
% mortality of Tetranychus urticae ([8]; abamectin 0.2 ppm): 0% | % mortality of Tetranychus urticae ([8]; abamectin 0.4 ppm): 0% | % mortality of Tetranychus urticae ([8]; abamectin 0.8 ppm): 27% | % mortality of Tetranychus urticae ([8]; abamectin 1.5 ppm): 70% | % mortality of Tetranychus urticae ([8]; abamectin 3 ppm): 95%
